Conditions: Rate of evaporation

CCn1cc[n+](C)c1.O=S(=O)([N-]S(=O)(=O)C(F)(F)F)C(F)(F)F
Liquid
Conditions	vapor or sublimation pressure [kPa]
363.13 K	1.75e-09
368.13 K	2.95e-09
373.13 K	4.91e-09
378.13 K	8.06e-09
383.13 K	1.31e-08
388.13 K	2.09e-08
393.13 K	3.31e-08
398.13 K	5.18e-08
403.13 K	8.01e-08
408.13 K	1.23e-07
413.13 K	1.86e-07
418.13 K	2.78e-07
423.13 K	4.14e-07
428.13 K	6.09e-07
433.13 K	8.88e-07
438.13 K	1.28e-06
443.13 K	1.84e-06
448.13 K	2.62e-06
453.13 K	3.7e-06
458.13 K	5.18e-06
463.13 K	7.2e-06
468.13 K	9.95e-06
473.13 K	1.36e-05
538.13 K	0.00129
543.13 K	0.00168
548.13 K	0.00216
553.13 K	0.00277
558.13 K	0.00355
563.13 K	0.00451
568.13 K	0.00572
573.13 K	0.00722
578.13 K	0.00907
583.13 K	0.0114
588.13 K	0.0142
593.13 K	0.0176
598.13 K	0.0218
603.13 K	0.0269
608.13 K	0.0331
613.13 K	0.0405
618.13 K	0.0495
623.13 K	0.0602
628.13 K	0.0731
633.13 K	0.0885
638.13 K	0.107
643.13 K	0.128
648.13 K	0.154
653.13 K	0.184
658.13 K	0.22
663.13 K	0.261
668.13 K	0.31
673.13 K	0.367
678.13 K	0.433
683.13 K	0.51
688.13 K	0.599
693.13 K	0.703
698.13 K	0.822
703.13 K	0.959
708.13 K	1.12
713.13 K	1.3
718.13 K	1.5
723.13 K	1.74

CCn1cc[n+](C)c1.COS(=O)(=O)[O-] [1-ethyl-3-methylimidazolium methylsulfate]
Liquid
Conditions	vapor or sublimation pressure [kPa]
408.15 K	6.75e-09
410.15 K	8.27e-09
413.15 K	1.12e-08
416.15 K	1.5e-08
420.15 K	2.21e-08
424.15 K	3.24e-08
428.15 K	4.7e-08
432.15 K	6.79e-08
436.15 K	9.72e-08
440.15 K	1.38e-07
444.15 K	1.96e-07
448.15 K	2.75e-07

c1ccc2cc3ccccc3cc2c1 [anthracene]
Crystal
Conditions	vapor or sublimation pressure [kPa]
284.15 K	1.79e-07
289.15 K	3.52e-07
294.15 K	6.77e-07
299.15 K	1.27e-06
304.15 K	2.35e-06
309.15 K	4.25e-06
314.15 K	7.54e-06
319.15 K	1.31e-05
324.15 K	2.25e-05
329.15 K	3.79e-05
334.15 K	6.29e-05
339.15 K	0.000103
344.15 K	0.000166
349.15 K	0.000263
354.15 K	0.000413
359.15 K	0.00064
364.15 K	0.000979
369.15 K	0.00148
374.15 K	0.00222
379.15 K	0.00328
384.15 K	0.00481
389.15 K	0.00698
394.15 K	0.01
399.15 K	0.0143
404.15 K	0.0202
409.15 K	0.0283
414.15 K	0.0393
419.15 K	0.0541
424.15 K	0.0741
429.15 K	0.101
434.15 K	0.136
439.15 K	0.182
444.15 K	0.242
449.15 K	0.319
454.15 K	0.42
459.15 K	0.548
464.15 K	0.712
469.15 K	0.919
474.15 K	1.18
479.15 K	1.51
484.15 K	1.92
489.15 K	2.42
494.15 K	3.05
499.15 K	3.83
504.15 K	4.77
509.15 K	5.93

CCCCCCCCCCCC [dodecane]
Liquid
Conditions	vapor or sublimation pressure [kPa]
284.15 K	0.00421
289.15 K	0.00646
294.15 K	0.00978
299.15 K	0.0146
304.15 K	0.0215
309.15 K	0.0312
314.15 K	0.0449
319.15 K	0.0638
324.15 K	0.0897
329.15 K	0.125
334.15 K	0.172
339.15 K	0.234
344.15 K	0.317
349.15 K	0.425
354.15 K	0.565
359.15 K	0.746
364.15 K	0.976
369.15 K	1.27
374.15 K	1.64
379.15 K	2.1
384.15 K	2.67
389.15 K	3.38
394.15 K	4.25
399.15 K	5.32
404.15 K	6.62
409.15 K	8.19
414.15 K	10.1
419.15 K	12.4
424.15 K	15.1
429.15 K	18.3
434.15 K	22.1
439.15 K	26.6
444.15 K	31.8
449.15 K	38
454.15 K	45.1
459.15 K	53.4
464.15 K	63
469.15 K	74.1
474.15 K	86.8
479.15 K	101
484.15 K	118
489.15 K	137
494.15 K	158
499.15 K	183
504.15 K	210
509.15 K	241

CCCCCCCCCCCCCCCC [hexadecane]
Liquid
Conditions	vapor or sublimation pressure [kPa]
284.15 K	6.01e-05
289.15 K	0.000102
294.15 K	0.000168
299.15 K	0.000274
304.15 K	0.00044
309.15 K	0.000696
314.15 K	0.00108
319.15 K	0.00166
324.15 K	0.00252
329.15 K	0.00377
334.15 K	0.00558
339.15 K	0.00816
344.15 K	0.0118
349.15 K	0.0169
354.15 K	0.0239
359.15 K	0.0335
364.15 K	0.0465
369.15 K	0.0641
374.15 K	0.0875
379.15 K	0.119
384.15 K	0.159
389.15 K	0.212
394.15 K	0.281
399.15 K	0.369
404.15 K	0.482
409.15 K	0.626
414.15 K	0.806
419.15 K	1.03
424.15 K	1.32
429.15 K	1.67
434.15 K	2.1
439.15 K	2.63
444.15 K	3.28
449.15 K	4.07
454.15 K	5.02
459.15 K	6.18
464.15 K	7.56
469.15 K	9.21
474.15 K	11.2
479.15 K	13.5
484.15 K	16.3
489.15 K	19.5
494.15 K	23.3
499.15 K	27.7
504.15 K	32.9
509.15 K	38.9

— the NIST ThermoML archive (doi:10.1016/j.tca.2015.03.020)
